Measured values taken from patent publication US5583248A, “Amino acid derivatives having antiviral activity” (Hoffmann-La Roche Inc., priority 1991, dated 1996).

Tests used:
[1] = molecular target: T1, HIV protease (Human immunodeficiency virus type 1 group M subtype B, UniProt P04585); test: in vitro inhibition of HIV protease; type: biochemical; conditions: substrate succinyl-Val-Ser-Gln-Asn-Phe-Pro-Ile isobutylamide; citrate buffer pH5.5; 37° C.; 50% inhibition; read-out: HIV protease inhibition I50
T1 construct: HIV protease was expressed in E. coli; made in house; host or cells: E. coli
Experimental: HIV protease was expressed in E. coli and partially purified from soluble extracts of the bacterium by ammonium sulphate fractionation (0-30%). Protease activity was assayed using the protected heptapeptide succinyl-Val-Ser-Gln-Asn-Phe-Pro-Ile isobutylamide as the substrate. Cleavage of the substrate was quantified by measuring the production of H-Pro-Ile isobutyl-amide by the spectrophotometric assay of N-terminal proline,
1.25 mM of substrate were dissolved in 125 mM of citrate buffer (pH5.5) containing 0.125 mg/ml of Tween 20. […] of a solution of various concentrations of the test compound (dissolved in methanol or dimethyl sulphoxide and diluted with water containing 0.1% Tween 20) and […] of protease were added to […] of the above buffered substrate. Digestion was carried out at 37° C. for a fixed period of time and was terminated by the addition of 1 ml of colour reagent [30 mg/ml of isatin and 1.5 mg/ml of 2-(4-chlorobenzoyl)benzoic acid in 10% acetone in ethanol (vol./vol.)]. The solution was heated in a water bath and then the pigmented residues were re-dissolved in 1 ml of 1% pyrogallol in 33% water in acetone (wt./vol./vol.), The optical density of the solution was measured spectrophotometrically at 599 nm, The formation of H-Pro-Ile isobutylamide in the presence of the test compound was compared with controls and the concentration of test compound required to give 50% inhibition (I50) was determined by means of a graph plotted from the various concentrations of test compound used.

[2] = test system: HTLV-III (strain RF) grown in C8166 cells; test: in vitro antiviral activity (activity against HIV); type: cell-based; conditions: Human immunodeficiency virus 1, C8166, 72 h, read-out: Activity against HIV I50
Experimental: This assay uses HTLV-III (strain RF) grown in C8166 cells (a human CD4^+ T lymphoblastoid line) using RPM1 1640 medium with bicarbonate buffer, antibiotics and 10% foetal bovine serum.
A suspension of cells is infected with ten times the TCID50 of virus and adsorption is allowed to proceed for 90 minutes at 37° C. The cells are washed three times with medium. The test is carried out in 6 ml tissue culture tubes containing 2×10^5 infected cells in 1.5 ml of medium. Test compounds are dissolved in either aqueous medium or dimethyl sulphoxide, according to solubility, and a […] solution of the test compound is added. The cultures are incubated at 37° C. for 72 hours in a humidified atmosphere containing 5% carbon dioxide in air. The cultures are then centrifuged and an aliquot of the supernatant is solubilized with Nonidet P40 and subjected to an antigen capture assay which uses a primary antiserum with particular reactivity against the viral p24 antigen and a horseradish peroxidase detection system. Colour generation is measured spectrophotometrically and is plotted against the concentration of test compound. The concentration which produces 50% protection is determined (I50).

Compound	IC50 [1]	IC50 [2]
CC(C)(C)NC(=O)[C@@H]1CCCC[C@H]1C[C@@H](O)[C@H](Cc1ccccc1)NC(=O)[C@H](CC(N)=O)NC(=O)OCc1ccccc1 [Compound A, 2(S)-[3(S)-[[N-(benzyloxycarbonyl)-L-asparaginyl]amino]-2(R)-hydroxy-4-phenylbutyl]-N-tert.butyl-1(R)-cyclohexanecarboxamide]	2 nM	46 nM
CC(C)(C)NC(=O)[C@@H]1CCCC[C@@H]1C[C@@H](O)[C@H](Cc1ccccc1)NC(=O)[C@H](CC(N)=O)NC(=O)OCc1ccccc1 [Compound B, 2(R)-[3(S)-[[N-(benzyloxycarbonyl)-L-asparaginyl]amino]-2(R)-hydroxy-4-phenylbutyl]-N-tert.butyl-1(R)-cyclohexanecarboxamide]	57 nM	1000 nM
CC(C)(C)NC(=O)[C@@H]1CCCC[C@H]1C[C@@H](O)[C@H](Cc1ccccc1)NC(=O)[C@H](CC(N)=O)NC(=O)c1ccc2ccccc2n1 [Compound C, 2(S)-[3(S)-[[N-(2-quinolylcarbonyl)-L-asparaginyl]amino]-2(R)-hydroxy-4-phenylbutyl]-N-tert.butyl-1(R)-cyclohexanecarboxamide]	–	4 nM
CSC[C@H](NC(=O)OCc1ccccc1)C(=O)N[C@@H](Cc1ccccc1)[C@H](O)C[C@@H]1CCCC[C@H]1C(=O)NC(C)(C)C [Compound D, 2(S)-[3(S)-[[N-(benzyloxycarbonyl)-S-methyl-L-cysteinyl]amino]-2(R)-hydroxy-4-phenylbutyl]-N-tert.butyl-1(R)-cyclohexanecarboxamide]	1.3 nM	–
COC(=O)C[C@H](NC(=O)OCc1ccccc1)C(=O)N[C@@H](Cc1ccccc1)[C@H](O)C[C@@H]1CCCC[C@H]1C(=O)NC(C)(C)C [Compound E, 2(S)-[3(S)-[[N-(benzyloxycarbonyl)-O-methyl-L-aspartyl]amino]-2(R)-hydroxy-4-phenylbutyl]-N-tert.butyl-1(R)-cyclohexanecarboxamide]	1.9 nM	–
CC(C)(C)NC(=O)[C@@H]1CCCC[C@H]1C[C@@H](O)[C@H](Cc1ccccc1)NC(=O)[C@H](CC#N)NC(=O)OCc1ccccc1 [Compound F, 2(S)-[3(S)-[[N-(benzyloxycarbonyl)-3-cyano-L-alanyl]amino]-2(R)-hydroxy-4-phenylbutyl]-N-tert.butyl-1(R)-cyclohexanecarboxamide]	2 nM	–
